From article PMC5983823, “Screening of Natural Product Derivatives Identifies Two Structurally Related Flavonoids as Potent Quorum Sensing Inhibitors against Gram-Negative Bacteria” (International Journal of Molecular Sciences, 2018)

Assays:
[1] = test system: P. aeruginosa (ATCC 9027, ATCC 15422 and PA01); assay: Viable plate counts (bacterial growth); assay type: cell-based, Pseudomonas aeruginosa; settings: 100 and 400 µM, 24 h
Method: Effects of the leads on bacterial growth were assessed by performing viable plate counts. Compounds at final concentrations of 100 and 400 µM and cultures of P. aeruginosa (ATCC 9027, ATCC 15422 and PA01) and E. coli K-12 (10^6 CFU/mL) were simultaneously added to the 96-microtiter well plates (200 µL per well). Untreated bacteria were included in control wells. The plates were incubated at 37 °C, without shaking for 24 h. At the end of this period, bacterial suspensions were transferred from the wells to Eppendorf tubes, and the tubes were sonicated for 10 min (25 °C, 35 kHz, Sonorex Digitec water bath (Bandelin, Zurich, Switzerland)). Each suspension was serially diluted in LB and plated on LB agar. The number of viable bacteria in each test concentration was counted after overnight incubation at 37 °C. Results were expressed as CFU/mL.

[2] = test system: C. violaceum; parameters: method as in PMID 27626397; settings: cited from earlier work

Row | SMILES | Bactericidal activity by viable plate counts [1] | Anti-QS activity class in earlier screening [2]
1 | CCC(=O)Oc1c(-c2ccccc2Cl)oc2ccccc2c1=O [Compound 2117, 2-(2-chlorophenyl)-4-oxochromen-3-yl propanoate] | Neither of the leads displayed any bactericidal activity | among the most active compounds
2 | CCCCCCCCCC(=O)Oc1c(-c2ccc(OC)cc2)oc2ccccc2c1=O [Compound 2896, 2-(4-methoxyphenyl)-4-oxochromen-3-yl decanoate] | Neither of the leads displayed any bactericidal activity | 
